Experimental data taken from BigSolDB 2.1.

CCCCc1nc(Cl)c(C(=O)OCOC(=O)OC(C)C)n1Cc1ccc(-c2ccccc2-c2nn[nH]n2)cc1
solubility (mole fraction)
Details | 278.15 K | 283.15 K | 288.15 K | 293.15 K | 298.15 K | 303.15 K | 308.15 K | 313.15 K
in acetone | 0.00987 | 0.0112 | 0.0132 | 0.0155 | 0.019 | 0.0234 | 0.0299 | 0.0364
in acetonitrile | 0.00131 | 0.00154 | 0.00195 | 0.00247 | 0.00326 | 0.00445 | 0.00597 | 0.00816
in methanol | 0.00111 | 0.00128 | 0.00156 | 0.00209 | 0.00277 | 0.00361 | 0.00508 | 0.00772
